Results on 23 compounds are retold here after patent US20110269811A1, “INHIBITORS OF SEMICARBAZIDE-SENSITIVE AMINE OXIDASE (SSAO) AND VAP-1 MEDIATED ADHESION USEFUL FOR TREATMENT AND PREVENTION OF DISEASES” (priority 2006, published 2011).

pIC50: −log10 of the molar value. Structures can show the parent of a compound that is named as a salt.

Series [1] has as its target T1, Human SSAO (Homo sapiens, UniProt Q16853).
T1 construct: rat lung or human umbilical cord homogenates were prepared by chopping the freshly removed tissue; from tissue; host or cells: human umbilical cord homogenate (25,000 g supernatant)
T1 sequence (Q16853 1-763): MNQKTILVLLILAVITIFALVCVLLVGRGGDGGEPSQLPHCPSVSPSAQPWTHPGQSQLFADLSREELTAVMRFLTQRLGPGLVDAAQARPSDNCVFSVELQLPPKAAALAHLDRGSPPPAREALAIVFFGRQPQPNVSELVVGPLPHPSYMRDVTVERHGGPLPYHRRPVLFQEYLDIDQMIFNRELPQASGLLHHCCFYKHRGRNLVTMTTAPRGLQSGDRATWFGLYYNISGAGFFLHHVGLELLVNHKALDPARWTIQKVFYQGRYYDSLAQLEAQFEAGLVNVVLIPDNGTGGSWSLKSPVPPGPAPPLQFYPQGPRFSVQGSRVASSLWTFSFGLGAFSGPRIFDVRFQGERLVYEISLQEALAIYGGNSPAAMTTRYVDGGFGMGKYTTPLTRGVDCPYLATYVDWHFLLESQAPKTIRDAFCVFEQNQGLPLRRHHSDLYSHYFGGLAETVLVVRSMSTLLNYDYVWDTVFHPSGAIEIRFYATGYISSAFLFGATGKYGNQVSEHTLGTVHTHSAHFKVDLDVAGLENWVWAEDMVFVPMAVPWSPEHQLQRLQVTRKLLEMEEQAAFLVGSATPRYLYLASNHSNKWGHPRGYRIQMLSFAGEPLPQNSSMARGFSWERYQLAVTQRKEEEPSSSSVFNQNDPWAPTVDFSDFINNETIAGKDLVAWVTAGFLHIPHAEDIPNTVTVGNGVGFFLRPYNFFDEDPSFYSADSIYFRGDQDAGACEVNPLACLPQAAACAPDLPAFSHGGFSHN
Briefly: In vitro inhibition of SSAO activity, human umbilical cord homogenate, 14C-benzylamine. The format is biochemical. The arrangement: Human SSAO, percent at given concentration: unit of the concentration uncertain. The note with it: for pIC50: human umbilical cord homogenate, read-out: Human SSAO IC50. How it is done: SSAO activity was measured as described (Lizcano J M. Et al. (1998) Biochem J. 331:69). Briefly, rat lung or human umbilical cord homogenates were prepared by chopping the freshly removed tissue into small pieces and washing them thoroughly in PBS. The tissue was then homogenized 1:10 (w/v) for lung or 1:5 (w/v) for umbilical cord, in 10 mM potassium phosphate buffer (pH 7.8). Homogenates were then centrifuged at 1000 g at 4° C. for 10 min (lung) or 25,000 g for 30 min (umbilical cord); the supernatants were kept frozen until ready to use. Lung or umbilical cord homogenate was preincubated with clorgyline and pargyline at 1 μM to inhibit MAO-A and -B activity, respectively, and SSAO inhibitors were generally present at 1 nM-10 μM. The reaction was initiated by addition of 20 μM ^14C— benzylamine as substrate. The reaction was carried out at 37° C. in a final volume of 400 μL of 100 mM potassium phosphate buffer (pH 7.2) and stopped with 100 μl of 2M citric acid. Radioactively labeled products were extracted into toluene/ethyl acetate (1:1, v/v) containing 0.6% (w/v) 2,5-diphenyloxazole (PPO) before liquid scintillation counting.

Series [2] concerns carrageenan-induced paw edema. Briefly: Carrageenan-induced rat paw edema. The conditions noted are these: therapeutic dosing: 3 mg/kg orally one hour after 0.375% carrageenan; FIG. 8. In kind it is in vivo, Sprague Dawley rats. From the text: Carrageenan-induced paw edema has been extensively used in the evaluation of anti-inflammatory effects of various therapeutic agents and is a useful experimental system for assessing the efficacy of compounds to alleviate acute inflammation (Whiteley P E and Dalrymple S A, 1998. Models of inflammation: carrageenan-induced paw edema in the rat, in Current Protocols in Pharmacology. Enna S J, Williams M, Ferkany J W, Kenaki T, Porsolt R E and Sullivan J P, eds., pp 5.4.1-5.4.3, John Wiley & Sons, New York). The full development of the edema is neutrophil-dependent (Salvemini D. et al. (1996) Br. J. Pharmacol. 118: 829).
Female Sprague Dawley rats were used in groups of 8-12 and compounds of the invention were administered orally at up to 50 mg/kg 60 min prior to carrageenan exposure. The control group was administered orally an equal volume of vehicle (PBS). Edema in the paws was induced as previously described by injecting 50 μL of a 0.5% solution of carrageenan (Type IV Lambda, Sigma) in saline with a 27-G needle s.c. in the right foot pad. (See Whiteley P. E. and Dalrymple S. A. (1998), Models of inflammation: carrageenan-induced paw edema in the rat, in Current Protocols in Pharmacology, Enna S J, Williams M, Ferkany J W, Kenaki T, Porsolt R E and Sullivan J P, eds., pp 5.4.1-5.4.3, John Wiley & Sons, New York) The size of the tested foot of each animal was measured volumetrically with a plethysmometer immediately after injection of carrageenan solution and at various times up to 360 min after carrageenan induction.
Results of experiments with the compounds II-1-E, I-1-Z, and I-2-Z are shown in FIG. 1, FIG. 5, and FIG. 6, respectively.
Using the same procedure discussed above, the size of the foot of each animal was measured volumetrically before induction of edema, and at 1.5, 3, 4.5 and 6 h after the carrageenan injection. The absolute decreases in paw swelling at 6 h with 1, 10 and 50 mg/kg were 5±11%, 20±9% and 32±6% respectively. Statistical analyses were performed with repeated measures ANOVA followed by Dunnett's test for multiple comparisons.
Paw edema was induced in groups of eight Sprague Dawley rats by injecting 50 μL of a 0.375% solution of carrageenan X in saline, subcutaneously in the foot. After one hour animals were orally dosed once with PBS, compound I-1-Z at 50 mg/kg or with indomethacin at 3 mg/kg. The size of the paws were measured before induction of edema (baseline), and at 1.5, 3, 4.5 and 6 h after carrageenan injection. […] Statistical analyses were performed with repeated measures ANOVA followed by Dunnett's test for multiple comparisons.
Groups of eight Sprague Dawley rats were orally administered PBS, or 0.01, 0.1 or 1 mg/kg of compound I-1-Z. One hour later paw edema was induced in all animals by injecting 50 μL of a 0.5% solution of carrageenan X in saline, subcutaneously into the footpad. The size of the foot of each animal was measured volumetrically before induction of edema, and at 1.5, 3, 4.5 and 6 h after the carrageenan injection. The absolute decreases in paw swelling at 6 h with 0.1 and 1 mg/kg were 34±8 and 29±8% respectively. Statistical analyses were performed with repeated measures ANOVA followed by Dunnett's test for multiple comparisons.
In general terms: Carrageenan injected into the paw causes an acute inflammation.

As for `CCOc1ccc(CC/C(=C/Cl)CN)cc1` (as salt: hydrochloride) [Compound I-34, (Z)-3-Chloro-2-(4-ethoxyphenylethyl)allylamine hydrochloride], the melting point – broadly, the temperature, or range, at which the solid turns liquid – is 160 to 162 °C. The compound `CCCCOc1ccc(CC/C(=C/Cl)CN)cc1` (as salt: hydrochloride) [Compound I-36, (Z)-3-Chloro-2-(4-n-butoxyphenylethyl)allylamine hydrochloride] showed a melting point of 133 to 134 °C. Take `Cc1cccc(CC/C(=C/Cl)CN)c1` (as salt: hydrochloride) [Compound I-37, (Z)-3-Chloro-2-(3-methylphenylethyl)allylamine hydrochloride]: the melting point lay in the range of 102 to 103 °C. Still for that read-out and setting: for `COc1cccc(CC/C(=C/Cl)CN)c1` (as salt: hydrochloride) [Compound I-38, (Z)-3-Chloro-2-(3-methoxyphenylethyl)allylamine hydrochloride] the value was 139 to 140 °C; for `NC/C(F)=C\Cc1cccc(C(F)(F)F)c1` (as salt: hydrochloride) [II-2, (E)-2-Fluoro-4-(3-trifluoromethylphenyl)-2-butenylamine hydrochloride], 145 to 147 °C; for `CS(=O)(=O)c1ccc(C/C(=C/F)CN)cc1` (as salt: trifluoroacetate), 49 to 50 °C. On the same count and under the same terms, for `NC/C(=C\Cl)CCc1ccc(F)cc1` (as salt: trifluoroacetate) the value was 69 to 70 °C; for `NC/C(=C\Cl)CCc1ccc(Cl)cc1` (as salt: trifluoroacetate), 89 to 90 °C. In the case of `Cc1ccc(CC/C(=C/Cl)CN)cc1.Cl` [Compound I-39-Z, (Z)-3-Chloro-2-(4-methylphenylethyl)allylamine hydrochloride], the melting point was 135 °C (dec.). In addition, in series [1], the pIC50 (as a rule, −log10 of the IC50, conventionally taken in molar units) was 5.92. Compound `NC/C(=C/Cl)CCc1ccc(F)cc1.O=C(O)C(F)(F)F` [Compound I-42-Z, (E)-3-Chloro-2-(4-fluorophenylethyl)allylamine trifluoroacetate] gave a melting point of 52 to 53 °C. In addition, in series [1] (@8 (unit uncertain)), the “Human SSAO, percent at given concentration” value (shortened to “Human SSAO, percent”) was 73%@8 mM. For the compound `NC/C(=C/Cl)CCc1ccc(Cl)cc1.O=C(O)C(F)(F)F` [Compound I-43-Z, (E)-3-Chloro-2-(4-chlorophenylethyl)allylamine trifluoroacetate], the melting point is 68 to 70 °C. Further, in series [1], the pIC50 was 5.85. The compound `Cc1cccc(CC/C(=C\Cl)CN)c1.Cl` [Compound I-48-E, (E)-3-Chloro-2-(3-methylphenylethyl)allylamine hydrochloride] came in with a melting point of 95 to 97 °C. For the same compound, the pIC50 in series [1] is 5.00. The matching figures for `COc1cccc(CC/C(=C\Cl)CN)c1.Cl` [Compound I-49-E, (E)-3-Chloro-2-(3-methoxyphenylethyl)allylamine hydrochloride]: 85 to 87 °C and 5.26. Turning to `Cc1ccc(CC/C(=C\Cl)CN)cc1.Cl` [Compound I-50-E, (E)-3-Chloro-2-(4-methylphenylethyl)allylamine hydrochloride], the melting point was 124 to 125 °C. For the same compound, the pIC50 in series [1] is 6.00.

`Cl.NC/C(=C/Cl)CCc1cc(F)cc(C(F)(F)F)c1` [Compound I-51-E, (E)-3-Chloro-2-(3-fluoro-5-trifluoromethylphenylethyl)allylamine hydrochloride] gave a melting point of 96 to 97 °C. Further, the “Human SSAO, percent” value in series [1] (@40 (unit uncertain)) stood at 33%@40 mM. Compound `Cl.NC/C(F)=C\Cc1cc(C(F)(F)F)cc(C(F)(F)F)c1` [II-12-E, (E)-2-Fluoro-4-(3,5-ditrifluoromethylphenyl)-2-butenylamine hydrochloride] registered a melting point of 197 to 198 °C. Moreover, the “Human SSAO, percent” value in series [1] (@7 (unit uncertain)) amounted to 55%@7 mM. For the compound `COc1ccccc1C/C=C(/F)CN.Cl` [II-17-E, (E)-2-Fluoro-4-(2-methoxyphenyl)-2-butenylamine hydrochloride], the melting point lay within 133 to 134 °C. For the same compound, the pIC50 in series [1] is 5.35.

`COc1cccc(C(C)/C=C(/F)CN)c1.Cl` (centres unmarked) [II-18-E] yielded a melting point of 133 to 134 °C. In the case of `NCC(=O)CCc1ccc(F)cc1` [IV-1, 1-amino-4-(4-fluorophenyl)butan-2-one], the “Human SSAO, percent” value in series [1] (@8 (unit uncertain)) was determined as 45%@8 mM.

Consider `COc1ccc(CCC(=O)CN)cc1` [IV-3, 1-amino-4-(4-methoxyphenyl)butan-2-one], for which, in series [1], the negative-log IC50 (pIC50) was 5.52. As to `COc1cccc(CCC(=O)CN)c1` [IV-8, 1-amino-4-(3-methoxyphenyl)butan-2-one], the pIC50 in series [1] is 5.43.

In the case of `NCC(=O)CCc1cc(F)cc(C(F)(F)F)c1` [IV-10, 1-amino-4-(3-fluoro-5-(trifluoromethyl)phenyl)butan-2-one], the pIC50 in series [1] is 5.82.

As for `COc1ccc2c(c1)c(CC(=O)O)c(C)n2C(=O)c1ccc(Cl)cc1` [indomethacin, reference compound], in series [2], the “inhibition of paw edema at 6 h” value is recorded as 67±8%.
